Results published in patent US20150273086A1, “HYPERPOLARIZED 2-OXOGLUTARATE AS METABOLIC AGENT IN MR” (BRACCO IMAGING S.P.A., priority 2012, published 2015).

Tests used:
[1] = system: prostate cancer cells (PC-3); conditions: 3.5 mM substrate, aspartate added, 14.1 T, 37° C., FIG. 3
Protocol: 10 million prostate cancer cells (PC-3) were harvested and redissolved in 500 μl phosphate buffer (PBS).
The acquisition was started just before injection of the hyperpolarized substrate.

[2] = system: liver cancer cells (Morris7777); conditions: 3.5 mM total substrate, aspartate added, FIG. 13
Protocol: 10 million liver cancer cells (Morris7777), were harvested and redissolved in 500 μl phosphate buffer (PBS).
The acquisition was started just before injection of the hyperpolarized substrates.

aspartate transaminase = test: Aspartate transaminase conversion of hyperpolarized 1-13C-2-oxoglutarate to 1-13C-glutamate with or without co-substrate
Protocol: The sample was dissolved in 5 ml phosphate buffer (40 mM, pH 7.3) with addition of NaOH (8 μl, 12 M). The pH after dissolution was 7.3. From this hyperpolarized solution aliquots of 300 μl were taken and added one at a time to 5 mm NMR tubes (1-3) kept at 37° C. containing the following:
Tube 1: 2.5 μl (3.2 U) aspartate transaminase+100 μl (120 mM) glutamate+200 μl 40 mM phosphate buffer pH.7.3.
Tube 2: 2.5 μl (3.2 U) aspartate transaminase+100 μl (120 mM) aspartate+200 μl 40 mM phosphate buffer pH.7.3.
Tube 3: 2.5 μl (3.2 U) aspartate transaminase+300 μl (40 mM) phosphate buffer pH.7.3.
A low pulse angle experiment was performed (15 degree pulses every 0.5 s for 12 s). Following the end of the experiment the procedure was repeated for tube 2 and tube 3.

[3] = system: PC-3, HEP-G2, PNT-1A and THLE-3 cells; test: UV assay of uptake and conversion of 2-oxoglutarate to glutamate in cancerous and normal cells; assay type: cell-based, human; conditions: 20 mM 2-oxoglutarate, 20 mM aspartate as co-substrate, 30 minutes at 37° C., FIG. 2
Protocol: A combination of cellular uptake of 2-oxoglutarate and conversion of 2-oxoglutarate to glutamate was measured using a UV assay. Following incubation of the cells with 2-oxoglutarate for 30 minutes at 37° C. the cells were disrupted and a perchloric acid extract was made to precipitate the enzymes, whereafter the concentration of the formed product, glutamate, was measured.
The following UV assay for measuring glutamate production was applied.
The assay consists of two parts, as shown in the reaction scheme below. In the first part, glutamate is generated by incubating 0.5 million (0.5*10^6) viable cells with 20 mM 2-oxoglutarate and 20 mM aspartate for 30 minutes at 37° C. In the second part the glutamate concentration is measured using commercially available GDH (glutamate dehydrogenase) enzyme to generate 2-oxoglutarate and NADH. The latter is an unfavorable reaction and the reaction is therefore forced in this direction by trapping of the produced NADH in the INT (Iodonitrotetrazolium) reaction.
Reaction scheme for the assay determining glutamate concentration from cells incubated with 2-oxoglutarate. GDHcell refer to the cellular presence of glutamate dehydrogenase which will convert 2-oxoglutarate to glutamate when 2-oxoglutarate is incubated with whole cells in the first part of the assay. […]

[4] = Hydrolysis of hyperpolarized 2-oxoglutaric-(1)-ethyl ester upon dissolution (13C-NMR); assay type: physicochemical; conditions: after 15 s; dissolved in D2O with added NaOH, pH 11
Protocol: 2-oxoglutaric-(1)-ethyl ester (31 mg, 0.18 mmol) was added to an Eppendorf tube and mixed with 0.7 mg (0.45 μmol) of the carboxylic acid form of the finland radical (tris{8-carboxyl-2,2,6,6-tetramethyl-benzo(1,2-d:4,5-dS)bis(1,3)dithiole-4-yl}methyl, carboxylic acid form). […]. The ethyl ester formed a glass upon rapid freezing. […] […]. The sample was hyperpolarized for 90 min.
The sample was dissolved in 6 ml D2O with added NaOH (35 μl of 10 M). […] The ester was hydrolyzed up to at least 95%, after 15 s. The 2-oxoglutaric-(1)-ethyl ester was easily hydrolyzed to 2-oxoglutarate during the time of the experiment.

Morris7777 cells [5] = test: UV assay of 2-oxoglutarate conversion in treated Morris7777 cells; assay type: cell-based, rat; conditions: Etoposide 15 μM 24 hours, Sorafenib 0.5 μM 48 hours, FIG. 10
Protocol: (§1) The UV assay and conditions used in example 4 were applied. Prior to harvesting the cells have been treated with MS-275, resveratrol, etoposide, or Sorafenib, as follows:
(§2) Morris7777 cells: Etoposide 15 μM, for 24 hours; Sorafenib 0.5 μM for 48 hours.
(§3) Uptake and conversion of 2-oxoglutarate were measured as described in example 4.

Morris7777 cells [6] = test: Trypan blue staining, total cell number and viability of treated Morris7777 cells; assay type: cell-based, rat; conditions: Etoposide 15 μM 24 hours, Sorafenib 0.5 μM 48 hours
Protocol: as §2
(§4) The treatment protocols were evaluated with a standard cellular method, trypan blue staining which provide the total cell numbers and cell viability.

[7] = as above; assay type: cell-based, rat; conditions: rat, Etoposide 15 μM 24 hours, Sorafenib 0.5 μM 48 hours
Protocol: as §2, §4

[8] = system: EL-4 xenograft mouse lymphoma model; test: In vivo DNP-MR glutamate signal pre versus post etoposide treatment; parameters: species or system C57BL/6 mouse; conditions: single dose Etoposide 2 mg/mouse i.p.; average over 4 mice, FIG. 8
Protocol: EL-4 xenograft mouse lymphoma model has been selected as test system to verify the ability of detecting tumour response to a DNA targeting therapy. […].
Five million EL-4 cells were suspended in 0.1 mL Roswell Park Memorial Institute (RPMI-1640) medium and subcutaneously injected in the flank of 7 weeks old female C57BL/6 mouse.
DNP experiment has been performed 9-10 days after cells inoculation pre Etoposide treatment and 10-11 days after cells inoculation post single dose Etoposide treatment (a dose of 2 mg/mouse has been i.p. administered by injection of 300 μL of Eposin 20 mg/mL diluted 1:3 in saline solution). DNP sample has been prepared as describes in example 6.

PC-3 cells [9] = test: Trypan blue staining, total cell number and viability of treated PC-3 cells; assay type: cell-based, human; conditions: MS-275 0.5 μM 48 hours, Resveratrol 50 μM 48 hours
Protocol: (§5) PC-3 cells: MS-275 0.5 μM, for 48 hours; Resveratrol 50 μM for 48 hours. The treatment protocols were evaluated with a standard cellular method, trypan blue staining which provide the total cell numbers and cell viability.

PC-3 cells [10] = test: UV assay of 2-oxoglutarate conversion in treated PC-3 cells; assay type: cell-based, human; conditions: MS-275 0.5 μM 48 hours, Resveratrol 50 μM 48 hours, FIG. 9
Protocol: as §1
PC-3 cells: MS-275 0.5 μM, for 48 hours; Resveratrol 50 μM for 48 hours.
as §3

[11] = Trypan blue staining, total cell number and viability of treated PC-3 cells; assay type: cell-based, human; conditions: human, MS-275 0.5 μM 48 hours, Resveratrol 50 μM 48 hours
Protocol: as §5

For “1-^13C-2-oxoglutaric acid [hyperpolarized 1-^13C-2-oxoglutarate]”, the “uptake and conversion into hyperpolarized 1-13C-glutamate” value [1] was “taken up by PC-3 cells and converted into hyperpolarized 1-^13C-glutamate” and the “produced hyperpolarized 1-13C-glutamate signal relative to 1-13C-lactate signal from hyperpolarized 1-13C-pyruvate” value [2] was “more than 2 times”.

For O=C(O)CCC(=O)C(=O)O [2-oxoglutarate], the “formation of glutamate product by aspartate transaminase” value (aspartate transaminase; no co-substrate (tube 3)) was “no product can be formed”, the “conversion to glutamate by aspartate transaminase, aspartate versus glutamate as co-substrate” value (aspartate transaminase; tubes 1 and 2, 37° C., FIG. 1) was “the two amino acids are almost equally effective” and the “conversion of 2-oxoglutarate in glutamate” value [3] was “higher in carcinoma cells than in normal cells”.

In the case of CCOC(=O)C(=O)CCC(=O)O [2-oxoglutaric-(1)-ethyl ester], the “ester hydrolyzed to 2-oxoglutarate” value [4] is reported as “at least 95%”.

With COc1cc([C@@H]2c3cc4c(cc3[C@@H](O[C@@H]3O[C@@H]5CO[C@@H](C)O[C@H]5[C@H](O)[C@H]3O)[C@H]3COC(=O)[C@H]23)OCO4)cc(OC)c1O [Etoposide, etoposide] the “conversion of 2-oxoglutarate to glutamate in comparison to untreated cells (control)” value (shortened to “conversion of 2-oxoglutarate … (control)”) (Morris7777 cells [5]) was “higher”, the Cell number (Morris7777 cells [6]) was 5.5 million and the viability [7] was less than 85%. For the same compound, the “signal of hyperpolarized 1-13C-glutamate post therapy compared to pre therapy” value [8] was “increases two times”.

For Nc1ccccc1NC(=O)c1ccc(CNC(=O)OCc2cccnc2)cc1 [MS-275], the Cell number (PC-3 cells [9]) was 4.5 million and the “conversion of 2-oxoglutarate … (control)” value (PC-3 cells [10]) was “no change”.

For Oc1ccc(C=Cc2cc(O)cc(O)c2)cc1 [Resveratrol], the viability at 48 h [11] was greater than 94%, the Cell number (PC-3 cells [9]) was 1.7 million and the “conversion of 2-oxoglutarate … (control)” value (PC-3 cells [10]) was “higher”.

For CNC(=O)c1cc(Oc2ccc(NC(=O)Nc3ccc(Cl)c(C(F)(F)F)c3)cc2)ccn1 [Sorafenib, sorafenib], the “conversion of 2-oxoglutarate … (control)” value (Morris7777 cells [5]) was “no change”, the Cell number (Morris7777 cells [6]) was 8 million and the viability [7] was greater than 89%.
